{
  "source": "patent US11192849B2",
  "about": "“Compounds, compositions, and methods for modulating ferroptosis and treating excitotoxic disorders” (THE TRUSTEES OF COLUMBIA UNIVERSITY IN THE CITY OF NEW YORK, priority 2013, dated 2021)",
  "key": {"HT-1080 cells [1]": {"system": "HT-1080 cells", "assay": "Mitochondrial cardiolipin peroxidation (10-N-nonylacridine orange) in HT-1080 cells", "type": "cell-based, human", "conditions": "STS 100 nM, NAO probe", "experimental": "200,000 HT-1080 cells were seeded into 6-well dishes (Corning). […] For the analysis of mitochondrial ROS, cells were incubated with 5 μM MitoSOX (Molecular Probes/Invitrogen) in HBSS for 10 minutes in the dark at 37° C. For the analysis of mitochondrial cardiolipin peroxidation, cells were incubated with NAO dissolved to a final concentration of 25 ng/mL in HBSS for 10 minutes in the dark at 37° C. Cells were then washed once in HBSS and measurements were subsequently acquired using an flow cytometer (BD/Accuri C6) equipped with a 488 nm laser for excitation of fluorophores. MitoSOX data were collected in the FL2 channel and NAO data was collected in the FL1 channel. Data are from three independent biological replicates of each experiment. Data were analyzed by one-way ANOVA with Bonferroni's post-hoc test."}, "[2]": {"system": "mice, IRI of the cremaster muscle", "assay": "In vivo microscopy on the postischemic cremaster muscle", "parameters": "species or system mouse", "experimental": "The surgical preparation of the cremaster muscle was performed as originally described by Baez with minor modifications (Traykova-Brauch et al., 2008; Mulay et al., 2013). Mice were anesthetized using a ketamine/xylazine mixture (100 mg/kg ketamine and 10 mg/kg xylazine), administrated by i.p. injection. The left femoral artery was cannulated in a retrograde manner for administration of microspheres and drugs. The right cremaster muscle was exposed through a ventral incision of the scrotum. The muscle was opened ventrally in a relatively avascular zone, using careful electrocautery to stop any bleeding, and spread over the transparent pedestal of a custom-made microscopic stage. Epididymis and testicle were detached from the cremaster muscle and placed into the abdominal cavity. Throughout the procedure as well as after surgical preparation during in vivo microscopy, the muscle was superfused with warm-buffered saline.\nThe setup for in vivo microscopy was centered around equipment for stroboscopic fluorescence epiillumination microscopy. […] Microscopy images were obtained with Olympus water immersion lenses (20×/numerical aperture (N.A.) 0.5 and 10×/N.A. 0.3) and recorded with an analog black-and-white charge-coupled device (CCD) video camera (Cohu 4920; Cohu) and an analog video recorder (AG-7350-E; Panasonic). […] For measurement of centerline blood flow velocity, green fluorescent microspheres (2-μm diameter; Molecular Probes) were injected via the femoral artery catheter, and their passage through the vessels of interest was recorded using the FITC filter cube under appropriate stroboscopic illumination (exposure, 1 ms; cycle time, 10 ms; length of the electromagnetic wave, 488 nm), integrating video images for sufficient time (>80 ms) to allow for the recording of several images of the same bead on one frame. […]"}, "HT-1080 cells [3]": {"system": "HT-1080 cells", "assay": "LOC library screening and confirmation: suppression of erastin-induced death", "type": "cell-based", "conditions": "Homo sapiens, LOC library screening and confirmation studies, read-out: EC50, inhibition of erastin-induced ferroptosis", "experimental": "The LOC library was screened over the course of several days. 384-well glass bottom assay plates (Corning) were seeded with 1,000 HT-1080 cells/well the day before the experiment. The day of the experiment, LOC mother plates were thawed at room temperature for 1 hour and spun at 1000 rpm for 1 minute prior to use. Using a BioMek liquid handing robot, 2 μL of compound solution from each LOC library mother plate was transferred to a 384 deep well “daughter” plate (Grenier) containing 148 μL of cell culture media. The cell culture media in each assay plate was then removed by flicking and, using a BioMek FX, replaced with 36 μL of growth media containing erastin (5 μM final). To this was added 4 μL of the drug solution from the daughter plate, for a final screening concentration of 5.3 μg/mL for each LOC library compound. 4 wells containing DMSO alone (no erastin), 4 wells containing 100 μM DFO alone (no erastin), 4 wells containing erastin plus DMSO, and 4 wells containing erastin plus 100 μM DFO (positive control) were included as controls on each plate. Each drug daughter plate was aliquoted separately to duplicate assay plates. Plates were then spun briefly (1000 rpm, 5 seconds) and returned to the 37° C. tissue culture incubator. 24 hours later, cell viability was assessed by Alamar Blue as described above.\nCandidate hits from the LOC library screen were identified. […]"}},
  "data": [
    {"smiles": "CCOC(=O)c1ccc(NC2CCCCC2)c(N)c1", "note": "[SRS8-28 (Fer-1), ethyl 3-amino-4-(cyclohexylamino)benzoate]", "values": [
      {"measurement": "mitochondrial cardiolipin oxidation in response to staurosporine", "setting": "HT-1080 cells [1]", "value": "did not prevent"},
      {"measurement": "leukocyte adherence", "setting": "[2]; 1 h and 2 h after onset of reperfusion", "value": "remains unchanged"},
      {"measurement": "leukocyte transmigration", "setting": "[2]; ferrostatin-1 2 mg/kg i.p.", "value": "Significantly reduced"},
      {"measurement": "leukocyte rolling", "setting": "[2]; within the first hour after reperfusion", "value": "is affected"},
      {"measurement": "EC50", "setting": "HT-1080 cells [3]", "value": 60, "unit": "nM"}
    ]}
  ]
}
